Source: paper PMC11870037 (Molecules, 2024)
Read-outs that look alike come from different tables or passages of the source.

Columns and labels:
[1] = biological target: T1, hERG potassium channel (Homo sapiens, UniProt Q12809); assay: hERG whole-cell patch clamp in HEK 293 cells; type: cell-based
T1 construct: expressed in transfected cells; host or cells: HEK 293

[2] = biological target: adrenergic α1 receptor; assay: Adrenergic α1 receptor binding assay ([3H]prazosin); conditions: rat cerebral cortex, means ± SEM of three experiments, read-out: Receptor Affinity Ki ± SEM α1
[3] = biological target: T2, SERT (Rattus norvegicus, UniProt P31652); assay: biochemical; type: binding; conditions: for potency ratio among SERT, NET, and H3: ratio of binding Ki values for SERT
T2 construct: [3H]-paroxetine, rat cerebral cortex; from tissue; host or cells: rat cerebral cortex (membranes / crude synaptosomes)
T2 sequence (P31652 whole entry): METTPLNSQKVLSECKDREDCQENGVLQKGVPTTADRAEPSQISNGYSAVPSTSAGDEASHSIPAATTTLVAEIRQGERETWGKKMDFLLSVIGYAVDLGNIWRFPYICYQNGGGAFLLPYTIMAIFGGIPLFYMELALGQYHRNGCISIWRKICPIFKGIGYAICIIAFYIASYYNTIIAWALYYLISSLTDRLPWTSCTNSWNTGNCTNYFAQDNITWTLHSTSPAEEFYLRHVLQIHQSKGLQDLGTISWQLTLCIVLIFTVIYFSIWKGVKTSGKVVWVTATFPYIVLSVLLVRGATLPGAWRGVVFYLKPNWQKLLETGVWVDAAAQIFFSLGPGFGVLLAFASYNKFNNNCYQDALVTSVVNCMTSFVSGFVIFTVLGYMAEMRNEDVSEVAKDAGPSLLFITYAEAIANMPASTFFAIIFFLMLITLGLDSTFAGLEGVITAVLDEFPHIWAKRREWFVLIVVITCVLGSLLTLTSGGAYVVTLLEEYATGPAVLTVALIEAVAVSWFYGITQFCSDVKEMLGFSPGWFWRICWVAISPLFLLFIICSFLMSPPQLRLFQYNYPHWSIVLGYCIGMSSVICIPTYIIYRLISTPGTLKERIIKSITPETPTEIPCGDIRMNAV

[4] = biological target: T3, NET (Rattus norvegicus, UniProt Q63380); assay: biochemical; conditions: Receptor Affinity Ki ± SEM NET, rat hippocampal membrane, [3H]nisoxetine; means ± SEM of three experiments
T3 sequence (Q63380 1-617): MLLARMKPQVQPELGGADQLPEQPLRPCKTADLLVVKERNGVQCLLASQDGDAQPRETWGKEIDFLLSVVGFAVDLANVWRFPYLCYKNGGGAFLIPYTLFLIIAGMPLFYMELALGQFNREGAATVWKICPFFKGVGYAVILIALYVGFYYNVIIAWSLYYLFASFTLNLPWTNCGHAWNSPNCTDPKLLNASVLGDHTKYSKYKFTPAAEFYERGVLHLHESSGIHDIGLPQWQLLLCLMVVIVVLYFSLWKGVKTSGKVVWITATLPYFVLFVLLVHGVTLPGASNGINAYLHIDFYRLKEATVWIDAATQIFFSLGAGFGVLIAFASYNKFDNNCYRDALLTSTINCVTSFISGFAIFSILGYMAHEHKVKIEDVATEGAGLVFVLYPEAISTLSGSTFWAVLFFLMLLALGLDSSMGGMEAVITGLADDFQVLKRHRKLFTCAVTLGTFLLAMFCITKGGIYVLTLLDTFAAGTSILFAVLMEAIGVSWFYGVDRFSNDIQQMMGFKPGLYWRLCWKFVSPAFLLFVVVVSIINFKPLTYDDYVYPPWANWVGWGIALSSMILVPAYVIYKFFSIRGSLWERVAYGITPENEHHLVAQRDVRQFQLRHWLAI

[5] = test system: mice; assay: Tail suspension test (TST); type: in vivo, mouse; conditions: oral, immobility duration
[6] = test system: female rats; conditions: females; cited from earlier work
[7] = test system: mice; conditions: oral, immobility duration
[8] = biological target: T3, NET; assay: Monoamine uptake transporter assay, [3H]NE uptake by NET; type: biochemical; conditions: 10 μM, n = 3
[9] = biological target: recombinant hH3R (Homo sapiens, UniProt Q9Y5N1); assay: H3 receptor intrinsic activity assay ([35S]GTPγS binding); type: biochemical; conditions: 10 μM, n = 3
Sequence of recombinant hH3R (Q9Y5N1 whole entry): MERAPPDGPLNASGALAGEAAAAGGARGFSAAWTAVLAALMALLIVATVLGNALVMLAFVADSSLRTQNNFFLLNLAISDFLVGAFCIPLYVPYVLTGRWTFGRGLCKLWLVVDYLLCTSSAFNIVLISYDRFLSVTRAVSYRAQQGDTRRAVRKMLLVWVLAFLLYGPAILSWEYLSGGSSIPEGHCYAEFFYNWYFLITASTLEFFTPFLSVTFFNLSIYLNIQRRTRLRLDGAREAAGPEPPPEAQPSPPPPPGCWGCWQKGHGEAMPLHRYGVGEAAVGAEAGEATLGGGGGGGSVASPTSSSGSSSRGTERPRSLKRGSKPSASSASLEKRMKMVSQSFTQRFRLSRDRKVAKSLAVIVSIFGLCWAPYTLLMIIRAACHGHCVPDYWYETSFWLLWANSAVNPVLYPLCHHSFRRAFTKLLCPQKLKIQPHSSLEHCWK

[10] = rat cerebral cortex, [3H]-paroxetine, means ± SEM of three experiments, read-out: Receptor Affinity Ki ± SEM SERT

T1 sequence (Q12809 whole entry): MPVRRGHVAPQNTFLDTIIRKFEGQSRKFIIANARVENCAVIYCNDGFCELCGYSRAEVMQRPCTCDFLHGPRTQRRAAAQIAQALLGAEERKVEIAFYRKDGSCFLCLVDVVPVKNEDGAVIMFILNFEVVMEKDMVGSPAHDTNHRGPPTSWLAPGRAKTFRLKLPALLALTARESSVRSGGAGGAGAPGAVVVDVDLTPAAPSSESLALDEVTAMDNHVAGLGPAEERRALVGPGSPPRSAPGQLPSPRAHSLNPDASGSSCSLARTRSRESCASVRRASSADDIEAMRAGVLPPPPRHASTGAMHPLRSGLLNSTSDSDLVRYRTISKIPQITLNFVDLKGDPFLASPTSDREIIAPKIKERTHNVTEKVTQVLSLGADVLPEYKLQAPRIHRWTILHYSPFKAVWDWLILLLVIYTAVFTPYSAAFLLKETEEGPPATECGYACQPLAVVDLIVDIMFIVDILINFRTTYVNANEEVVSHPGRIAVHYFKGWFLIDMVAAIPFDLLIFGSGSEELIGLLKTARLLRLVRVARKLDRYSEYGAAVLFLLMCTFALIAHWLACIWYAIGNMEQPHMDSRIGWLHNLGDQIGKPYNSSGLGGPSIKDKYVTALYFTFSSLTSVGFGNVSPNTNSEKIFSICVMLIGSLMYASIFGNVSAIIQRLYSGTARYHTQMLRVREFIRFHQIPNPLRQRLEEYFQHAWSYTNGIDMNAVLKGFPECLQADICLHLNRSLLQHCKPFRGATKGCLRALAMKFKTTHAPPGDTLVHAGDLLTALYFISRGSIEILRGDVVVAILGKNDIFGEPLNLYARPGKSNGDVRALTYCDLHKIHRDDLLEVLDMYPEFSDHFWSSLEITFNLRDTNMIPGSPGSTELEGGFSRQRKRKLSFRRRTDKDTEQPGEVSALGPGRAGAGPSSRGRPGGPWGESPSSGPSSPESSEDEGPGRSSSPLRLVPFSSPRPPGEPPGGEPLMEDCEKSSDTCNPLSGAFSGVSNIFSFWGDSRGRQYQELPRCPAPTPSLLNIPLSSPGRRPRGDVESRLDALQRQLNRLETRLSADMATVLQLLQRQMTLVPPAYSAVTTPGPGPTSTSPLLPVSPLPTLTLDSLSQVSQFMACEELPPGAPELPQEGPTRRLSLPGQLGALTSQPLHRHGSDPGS

Structure (SMILES) | Ki [3, 10] [nM] | Ki [4] [nM] | melting point [°C] | other results
CN(C)CCC(Oc1cccc2c1OCO2)c1ccc(OCCCN2CCCC2)cc1.O=C(O)C(=O)O (centres unmarked) [Compound 11a, 3-(benzo[d][1,3]dioxol-4-yloxy)-N,N-dimethyl-3-(4-(3-(pyrrolidin-1-yl)propoxy)phenyl)propan-1-amine oxalate] | 10.3 ± 0.9 | 19.2 ± 2.3 | 138 to 140 | IC50 [1]: 819 ± 90.4 nM; Ki [2]: 428 ± 35.3 nM; potency ratio among SERT, NET, and H3 [3]: < 10 fold
CN(C)CCC(Oc1cccc2c1OCO2)c1ccc(OCCCN2CCOCC2)cc1.O=C(O)C(=O)O (centres unmarked) [Compound 11c, 3-(benzo[d][1,3]dioxol-4-yloxy)-N,N-dimethyl-3-(4-(3-morpholinopropoxy)phenyl)propan-1-amine oxalate] | 43.2 ± 3.8 | 32.6 ± 2.7 | 169 to 170 | 
CN(C)CCC(Oc1cccc2c1OCO2)c1ccc(OCCCN2CCN(C)CC2)cc1.O=C(O)C(=O)O (centres unmarked) [Compound 11d, 3-(benzo[d][1,3]dioxol-4-yloxy)-N,N-dimethyl-3-(4-(3-(4-methylpiperazin-1-yl)propoxy)phenyl)propan-1-amine oxalate] | 52.3 ± 2.8 | 86.8 ± 9.1 | 155 to 156 | 
CCN1CCN(CCCOc2ccc(C(CCN(C)C)Oc3cccc4c3OCO4)cc2)CC1.O=C(O)C(=O)O (centres unmarked) [Compound 11e, 3-(benzo[d][1,3]dioxol-4-yloxy)-3-(4-(3-(4-ethylpiperazin-1-yl)propoxy)phenyl)-N,N-dimethylpropan-1-amine oxalate] | 39.6 ± 3.3 | 66.9 ± 5.1 | 187 to 189 | 
CC(C)N1CCN(CCCOc2ccc(C(CCN(C)C)Oc3cccc4c3OCO4)cc2)CC1.O=C(O)C(=O)O (centres unmarked) [Compound 11f, 3-(benzo[d][1,3]dioxol-4-yloxy)-3-(4-(3-(4-isopropylpiperazin-1-yl)propoxy)phenyl)-N,N-dimethylpropan-1-amine oxalate] | 35.7 ± 3.1 | 57.9 ± 6.4 | 160 to 162 | 
CN(C)CCC(Oc1cccc2c1OCO2)c1ccc(OCCCN2CC3CCCC3C2)cc1.O=C(O)C(=O)O (centres unmarked) [Compound 11g, 3-(benzo[d][1,3]dioxol-4-yloxy)-3-(4-(3-(hexahydrocyclopenta[c]pyrrol-2(1H)-yl)propoxy)phenyl)-N,N-dimethylpropan-1-amine oxalate] | 31.3 ± 4 | 48.2 ± 4.2 | 110 to 112 | 
CN(C)CCC(Oc1cccc2c1OCO2)c1cccc(OCCCN2CCCC2)c1.O=C(O)C(=O)O (centres unmarked) [Compound 11h, 3-(benzo[d][1,3]dioxol-4-yloxy)-N,N-dimethyl-3-(3-(3-(pyrrolidin-1-yl)propoxy)phenyl)propan-1-amine oxalate] | 192 ± 18.8 | 144 ± 13.5 | 104 to 106 | 
CN(C)CCC(Oc1cccc2c1OCO2)c1cccc(OCCCN2CCCCC2)c1.O=C(O)C(=O)O (centres unmarked) [Compound 11i, 3-(benzo[d][1,3]dioxol-4-yloxy)-N,N-dimethyl-3-(3-(3-(piperidin-1-yl)propoxy)phenyl)propan-1-amine oxalate] | 236 ± 26.1 | 105 ± 9.8 | 81 to 83 | 
CN(C)CCC(Oc1cccc2c1OCO2)c1cccc(OCCCN2CCOCC2)c1.O=C(O)C(=O)O (centres unmarked) [Compound 11j, 3-(benzo[d][1,3]dioxol-4-yloxy)-N,N-dimethyl-3-(3-(3-morpholinopropoxy)phenyl)propan-1-amine oxalate] | 465 ± 39.8 | 153 ± 12.7 | 95 to 98 | 
CC(C)N1CCN(CCCOc2cccc(C(CCN(C)C)Oc3cccc4c3OCO4)c2)CC1.O=C(O)C(=O)O (centres unmarked) [Compound 11k, 3-(benzo[d][1,3]dioxol-4-yloxy)-3-(3-(3-(4-isopropylpiperazin-1-yl)propoxy)phenyl)-N,N-dimethylpropan-1-amine oxalate] | 163 ± 17.6 | 111 ± 10.3 | 185 to 186 | 
CN(C)CCCOc1ccc(C(CCN(C)C)Oc2cccc3c2OCO3)cc1.O=C(O)C(=O)O (centres unmarked) [Compound 11l, 3-(benzo[d][1,3]dioxol-4-yloxy)-3-(4-(3-(dimethylamino)propoxy)phenyl)-N,N-dimethylpropan-1-amine oxalate] | 17.1 ± 1.6 | 115 ± 12.3 | 121 to 122 | 
CCN(CC)CCCOc1ccc(C(CCN(C)C)Oc2cccc3c2OCO3)cc1.O=C(O)C(=O)O (centres unmarked) [Compound 11m, 3-(benzo[d][1,3]dioxol-4-yloxy)-3-(4-(3-(diethylamino)propoxy)phenyl)-N,N-dimethylpropan-1-amine oxalate] | 28.4 ± 11.3 | 85.2 ± 9.1 | 98 to 100 | 
CN(C)CCC(Oc1cccc2c1OCO2)c1ccc(OCCN2CCCCC2)cc1.O=C(O)C(=O)O (centres unmarked) [Compound 11n, 3-(benzo[d][1,3]dioxol-4-yloxy)-N,N-dimethyl-3-(4-(2-(piperidin-1-yl)ethoxy)phenyl)propan-1-amine oxalate] | 26.1 ± 2.3 | 37.3 ± 4.2 | 116 to 118 | 
CN(C)CCC(Oc1cccc2c1OCO2)c1ccc(OCCCCN2CCCCC2)cc1.O=C(O)C(=O)O (centres unmarked) [Compound 11o, 3-(benzo[d][1,3]dioxol-4-yloxy)-N,N-dimethyl-3-(4-(4-(piperidin-1-yl)butoxy)phenyl)propan-1-amine oxalate] | 49.2 ± 4.8 | 64.6 ± 5.5 | 169 to 171 | 
CC1CCCCN1CCCOc1ccc(C(CCN(C)C)Oc2cccc3c2OCO3)cc1.O=C(O)C(=O)O (centres unmarked) [Compound 11p, 3-(benzo[d][1,3]dioxol-4-yloxy)-N,N-dimethyl-3-(4-(3-(2-methylpiperidin-1-yl)propoxy)phenyl)propan-1-amine oxalate] | 20.6 ± 1.9 | 35.4 ± 3.2 | 129 to 131 | 
CC1CCCN(CCCOc2ccc(C(CCN(C)C)Oc3cccc4c3OCO4)cc2)C1.O=C(O)C(=O)O (centres unmarked) [Compound 11q, 3-(benzo[d][1,3]dioxol-4-yloxy)-N,N-dimethyl-3-(4-(3-(3-methylpiperidin-1-yl)propoxy)phenyl)propan-1-amine oxalate] | 12.1 ± 1.6 | 20.7 ± 2.1 | 130 to 132 | IC50 [1]: 780 ± 68.5 nM; Ki [2]: 307 ± 28.1 nM; potency ratio among SERT, NET, and H3 [3]: < 10 fold
CC1CCN(CCCOc2ccc(C(CCN(C)C)Oc3cccc4c3OCO4)cc2)CC1.O=C(O)C(=O)O (centres unmarked) [Compound 11r, 3-(benzo[d][1,3]dioxol-4-yloxy)-N,N-dimethyl-3-(4-(3-(4-methylpiperidin-1-yl)propoxy)phenyl)propan-1-amine oxalate] | 27.1 ± 1.6 | 38.3 ± 3.5 | 126 to 128 | 
CC1CC(C)CN(CCCOc2ccc(C(CCN(C)C)Oc3cccc4c3OCO4)cc2)C1.O=C(O)C(=O)O (centres unmarked) [Compound 11s, 3-(benzo[d][1,3]dioxol-4-yloxy)-3-(4-(3-(3,5-dimethylpiperidin-1-yl)propoxy)phenyl)-N,N-dimethylpropan-1-amine oxalate] | 30.3 ± 2.6 | 25.1 ± 2.8 | 140 to 142 | 
CN(C)CCC(Oc1cccc2c1OCO2)c1ccc(OCCCN2CCC(F)CC2)cc1.O=C(O)C(=O)O (centres unmarked) [Compound 11t, 3-(benzo[d][1,3]dioxol-4-yloxy)-3-(4-(3-(4-fluoropiperidin-1-yl)propoxy)phenyl)-N,N-dimethylpropan-1-amine oxalate] | 34.2 ± 2.8 | 42.5 ± 4.6 | 134 to 136 | 
CN(C)CCC(Oc1cccc2c1OCO2)c1ccc(OCCCN2CCC(Cl)CC2)cc1.O=C(O)C(=O)O (centres unmarked) [Compound 11u, 3-(benzo[d][1,3]dioxol-4-yloxy)-3-(4-(3-(4-chloropiperidin-1-yl)propoxy)phenyl)-N,N-dimethylpropan-1-amine oxalate] | 39.5 ± 4 | 50.2 ± 4.9 | 145 to 146 | 
CN(C)CCC(Oc1cccc2c1OCO2)c1ccc(OCCCN2CCC(C#N)CC2)cc1.O=C(O)C(=O)O (centres unmarked) [Compound 11v, 1-(3-(4-(1-(benzo[d][1,3]dioxol-4-yloxy)-3-(dimethylamino)propyl)phenoxy)propyl)piperidine-4-carbonitrile oxalate] | 60.5 ± 5.7 | 48.6 ± 6.4 | 148 to 151 | 
CNCC[C@H](Oc1cccc2ccccc12)c1cccs1 [Duloxetine, reference compound] |  |  |  | minimal effective dose (MED) in TST [5]: 16 mg/kg; Ki [2]: 1010 ± 97.8 nM; LD50 [6]: 279 mg/kg; minimal effective dose (MED) in FST [7]: 16 mg/kg
CNCCC(Oc1ccccc1OC)c1ccccc1 (centres unmarked) [Nisoxetine, reference compound] |  |  |  | inhibition at 10 µM [8]: 99.8 ± 1.9%
Clc1ccc(CCCOCCCN2CCCCC2)cc1 [Pitolisant, reference compound] |  | > 1000 |  | Ki ([3]; Receptor Affinity Ki ± SEM SERT): > 1000 nM; inhibition at 10 µM [9]: 99.3 ± 2.5%
